Measured values as given in patent US9072753B1, “Gargle method to reduce the duration of common cold symptoms” (priority 2001, dated 2015).
“Also recorded” adds a separate entry of the source. Like-named read-outs stand apart in the source and are kept apart here.

Key:
Rhinovirus 14 = test: Antiviral activity testing against rhinovirus (Rhinovirus 14 in KB cells); type: cell-based; conditions: for Virus Inhibition: 4 values and above indicate excellent antiviral activity
[1] = tested on: Influenza A/Hong Kong/68 (H3N2); test: Antiviral activity testing against influenza virus in MDCK cells; type: cell-based; conditions: Influenza A/Hong Kong/68 (H3N2) in MDCK cells; for Virus Inhibition: 4 values and above indicate excellent antiviral activity
Description: Results of antiviral invitro testing performed at baylor college of medicine department of molecular virology & microbiology.

[2] = tested on: Madin Darby Canine Kidney (MDCK) cells; test: Toxicity of materials in the influenza test (MDCK cells); type: cell-based; conditions: Table 2
common cold [3] = conditions: after seven days; 37 zinc-treated subjects; cited from earlier work
common cold [4] = test: Case examples, nonalcoholic mouthwash remedies in subjects with a cold; type: in vivo, human; conditions: single subject per example; 15 ml mouthwash three times a day for at least two days
Experimental: In order to facilitate a more complete understanding of the invention, a number of Examples are provided below. However, the scope of the invention is not limited to specific embodiments disclosed in these Examples, which are for purposes of illustration only. In each of the following Examples, the subjects were administered one tablespoon (15 ml) of remedy in a mouthwash formulation three times a day for at least two days comprising: […]

[5] = tested on: broad spectrum of viruses; conditions: cited from earlier work
myxoviruses = conditions: cited from earlier work
[6] = tested on: RNA-dependent DNA polymerases (reverse transcriptases) of both Moloney and Rauscher leukemia viruses; conditions: cited from earlier work
[7] = in vivo; cited from earlier work
cells in tissue culture = conditions: high concentrations; cited from earlier work
[8] = healthy HIV-negative humans; cited from earlier work

Row | Compound | Virus Inhibition (Rhinovirus 14) | Virus Inhibition [1] | Toxicity [2] | Toxicity (KB cells; human) | Recovery from the cold (common cold [4]) | other results
1 | OO [Hydrogen Peroxide] | 7 | 6 | 6 | 7 |  | 
2 | zinc |  |  |  |  |  | Subjects asymptomatic (common cold [3]): 86%
3 | O=C([O-])O.[Na+] [Baking Soda] | 4 | 2 | 0 |  | within one day; also recorded: within two days; also recorded: within three days | Selective Inhibition (Rhinovirus 14): 2; Selective Inhibition [1]: 4; Toxicity (KB cells): 2
4 | COC(=O)C1=CO[C@@H](C)[C@@H](C=O)[C@@H]1CC(=O)[O-].COC(=O)C1=CO[C@@H](C)[C@@H](C=O)[C@@H]1CC(=O)[O-].[Ca+2] [calcium elenolate] |  |  |  |  |  | Virucidal activity in vitro [5]: virucidal for a broad spectrum of viruses in vitro; Inactivation of myxoviruses (myxoviruses): inactivates all myxoviruses so far tested; Inhibition of reverse transcriptases [6]: inhibits; Tolerability in animals [7]: well tolerated; Toxicity to cells in tissue culture (cells in tissue culture): relatively nontoxic
5 | O=C1O[C@H]([C@@H](O)CO)C(O)=C1O [Ascorbic Acid] | 4 |  |  |  | within one day; also recorded: within two days | 
6 | O=C(O)CC(O)(CC(=O)O)C(=O)O [Citric Acid] | 6 | 6 | 6 | 6 | within three days; also recorded: within one day; also recorded: within four days; also recorded: within two days; also recorded: within ten days; also recorded: within five days | 
7 | O=C(O)CC(O)C(=O)O (centres unmarked) [Malic Acid] | 6 | 6 | 6 | 6 |  | 
8 | CCCc1cc(=O)oc2c3c(c4c(c12)OC(C)(C)C=C4)O[C@H](C)[C@@H](C)[C@@H]3O [Calanolide A] |  |  |  |  |  | Safety and tolerability [8]: safe and well tolerated
